Assay results published in US4873253A, “Phenylalanine derivative and proteinase inhibitor” (Okamoto; Shosuke, priority 1987, dated 1989).
Counter-ions that a name gives are not always drawn. Like-named read-outs stand apart in the source and are kept apart here.

How the values were obtained:
human urokinase = human urokinase (Homo sapiens, UniProt P00749); assay: biochemical; settings: Table 2; substrate S-2444, pH 8.8, 37° C.; read-out: Urokinase S-2444 I50
Experimental: Determination of inhibition activity for S-2444 decomposition
(§1) An inhibitor sample is dissolved in a 0.05 M Tris-hydrochloric acid buffer solution (pH=8.8) to make the total volume to 400 μl. To this solution, 50 μl of a 1 mM S-2444 solution is added and the mixture is incubated at a temperature of 37° C. for 5 minutes in a constant temperature bath. Then, 50 μl of a 500 unit/ml human urokinase is added and the mixture is incubated at a temperature of 37° C. for 5 minutes. Thereafter, 50 μl of 50% acetic acid is added to terminate the reaction. The absorbance of the p-nitroaniline formed in the reaction mixture is measured at 405 nm. Thus, the concentration I50 (μmol) of the inhibitor sample, at which the absorbance is one half (i.e., 1/2) of that obtained in the absence of the inhibitor sample, is determined.

human plasma kallikrein = human plasma kallikrein (Homo sapiens, UniProt P03952); assay: Anti-plasma kallikrein activity: inhibition of S-2302 decomposition; type: biochemical; settings: Table 2; substrate S-2302, pH 7.8, 37° C.; read-out: Plasma Kallikrein S-2302 I50
Experimental: Determination of inhibition activity for S-2302 decomposition
as §1, with “solution (pH=7.8)” for “solution (pH=8.8)”, “a 2” for “a 1”, “mM S-2302” for “mM S-2444”, “a 0.12” for “a 500”, “human plasma kallikrein” for “human urokinase”

bovine trypsin = molecular target: T1, bovine trypsin (Bos taurus, UniProt P00760); assay: Antitrypsin activity: inhibition of S-2238 decomposition; type: biochemical; settings: Table 2; substrate S-2238, pH 8.1, 37° C.; read-out: Trypsin S-2238 I50
T1 sequence (P00760 24-246): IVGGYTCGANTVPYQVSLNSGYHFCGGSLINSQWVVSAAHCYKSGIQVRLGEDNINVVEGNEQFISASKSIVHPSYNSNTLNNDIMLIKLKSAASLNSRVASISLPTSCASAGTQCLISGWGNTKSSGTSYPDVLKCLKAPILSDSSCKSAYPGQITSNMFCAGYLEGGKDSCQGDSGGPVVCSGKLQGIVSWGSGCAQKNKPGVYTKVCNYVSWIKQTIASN
Experimental: Determination of inhibition activity against S-2238 decomposition
An inhibitor sample is dissolved in a 0.05 M Tris-imidazole buffer solution (pH=8.1) and 125 μl of a 1 mM S-2238 solution is added to make the total volume to 1.20 ml. The mixture is incubated at a temperature of 37° C. for 5 minutes in a constant temperature bath. To this mixture, 0.05 ml of bovine trypsin is added and the absorbance, at 405 nm, of the p-nitroaniline formed per minute is determined at a temperature of 37° C. by using the so-called initial velocity method. Thus, the concentration I50 (μmol) of a inhibitor sample, at which the absorbance is one half (i.e., 1/2) of that obtained in the absence of the inhibitor sample, is determined.

bovine thrombin = molecular target: T2, bovine thrombin (Bos taurus, UniProt P00735); assay: Antithrombin activity: inhibition of fibrin formation (fibrinogen); type: biochemical
T2 construct: a 0.2 unit/ml bovine thrombin solution
Experimental: (i) Determination of inhibition activity against fibrin formation
An inhibitor sample is dissolved in a 0.18 M borate-physiological salt buffer solution (pH= 7.4) to make the total volume to 500 μl. […] Thus, a coagulation time is determined. The inhibitor concentration I50 (μmol), at which the coagulation time obtained in the absence of the inhibitor is extended twice, is determined.

human plasmin [1] = molecular target: T3, human plasmin (Homo sapiens, UniProt P00747); assay: Antiplasmin activity: inhibition of S-2251 decomposition; type: biochemical; settings: Table 2; substrate S-2251, pH 7.4, 37° C.
Experimental: An inhibitor sample is dissolved in a 0.05 M Tris-hydrochloric acid buffer solution (pH=7.4) to make the total volume to 400 μl. […] Then, 50 μl of a 0.2 casein unit/ml human plasmin is added and the mixture is incubated at a temperature of 37° C. for 4 minutes. Thereafter, the reaction is stopped by adding 50 μl of 50% acetic acid.
Thus, the concentration I50 (μmol) of the inhibitor sample, at which the absorbance is one half (i.e., 1/2) of that obtained in the absence of the inhibitor, is determined.

human plasmin [2] = molecular target: T3, human plasmin; assay: Antiplasmin activity: inhibition of fibrin decomposition; type: biochemical; settings: Table 2, pH 7.4, 37° C., read-out: Plasmin Fibrin I50 (concentration doubling fibrin dissolution time)
Experimental: (i) Determination of inhibition activity for fibrin decomposition
An inhibitor sample is dissolved in a 0.18 M borate-physiological salt buffer solution (pH=7.4) to make the total volume to 600 μl. To this buffer solution, 200 μl of a 0.2% bovine fibrinogen, 100 μl of a 0.3 casein unit/ml human plasmin solution, and 100 μl of a 50 unit/ml bovine thrombin solution, all dissolved in the above-mentioned buffer, are added at a temperature of 37° C. in a constant temperature bath. Then, the dissolution time of the fibrin mass formed above is determined.

[3] = Table 2, bovine fibrinogen, pH 7.4, 37° C., read-out: Thrombin Fibrinogen I50 (concentration doubling coagulation time)

T3 sequence (P00747 581-810 limits assumed): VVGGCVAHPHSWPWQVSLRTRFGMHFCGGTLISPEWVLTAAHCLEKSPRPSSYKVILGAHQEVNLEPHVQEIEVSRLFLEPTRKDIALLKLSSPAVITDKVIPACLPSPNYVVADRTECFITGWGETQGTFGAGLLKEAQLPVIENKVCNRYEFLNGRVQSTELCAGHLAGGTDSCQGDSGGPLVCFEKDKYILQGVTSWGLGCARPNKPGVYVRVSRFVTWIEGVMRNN
T3 sequence (P00747 97-580 limits assumed): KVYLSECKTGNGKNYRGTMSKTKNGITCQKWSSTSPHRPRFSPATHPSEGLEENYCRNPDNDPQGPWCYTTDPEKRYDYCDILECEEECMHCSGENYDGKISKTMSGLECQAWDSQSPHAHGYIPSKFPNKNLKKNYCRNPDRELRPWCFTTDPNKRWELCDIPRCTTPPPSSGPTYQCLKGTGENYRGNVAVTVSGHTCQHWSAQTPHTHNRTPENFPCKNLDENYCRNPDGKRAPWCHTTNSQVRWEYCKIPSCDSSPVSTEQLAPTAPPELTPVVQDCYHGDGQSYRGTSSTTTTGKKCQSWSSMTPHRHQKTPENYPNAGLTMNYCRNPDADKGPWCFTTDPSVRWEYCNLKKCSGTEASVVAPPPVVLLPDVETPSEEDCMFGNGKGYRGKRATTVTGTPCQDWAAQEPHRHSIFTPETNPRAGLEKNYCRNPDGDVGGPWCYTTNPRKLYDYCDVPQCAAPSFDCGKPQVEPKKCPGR
Chain of human plasma kallikrein (P03952 391-638 limits assumed): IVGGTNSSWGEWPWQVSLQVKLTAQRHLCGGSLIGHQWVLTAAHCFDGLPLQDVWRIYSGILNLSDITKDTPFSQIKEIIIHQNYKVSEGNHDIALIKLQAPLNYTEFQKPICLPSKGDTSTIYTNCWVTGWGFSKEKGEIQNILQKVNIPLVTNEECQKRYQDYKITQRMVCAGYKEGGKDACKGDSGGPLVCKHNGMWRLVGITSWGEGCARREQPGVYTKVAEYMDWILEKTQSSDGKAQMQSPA
Chain of human plasma kallikrein (P03952 20-390 limits assumed): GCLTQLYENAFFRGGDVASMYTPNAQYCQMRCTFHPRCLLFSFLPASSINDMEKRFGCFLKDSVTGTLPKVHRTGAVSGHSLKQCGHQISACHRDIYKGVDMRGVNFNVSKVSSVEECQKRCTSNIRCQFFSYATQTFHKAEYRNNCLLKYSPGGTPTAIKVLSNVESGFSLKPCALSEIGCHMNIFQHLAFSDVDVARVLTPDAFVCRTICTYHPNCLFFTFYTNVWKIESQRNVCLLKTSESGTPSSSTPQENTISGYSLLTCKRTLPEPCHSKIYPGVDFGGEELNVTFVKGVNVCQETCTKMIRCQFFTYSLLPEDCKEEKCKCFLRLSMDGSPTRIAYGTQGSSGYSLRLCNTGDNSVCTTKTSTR

| Compound | IC50 (human urokinase) [µM] | IC50 (human plasma kallikrein) [µM] | IC50 (bovine trypsin) [µM] | IC50 (bovine thrombin; [3]) [µM] | IC50 (human plasmin [1]) [µM] | IC50 (human plasmin [2]) [µM] | IC50 (bovine thrombin) [µM] |
| --- | --- | --- | --- | --- | --- | --- | --- |
| NC[C@H]1CC[C@H](C(=O)NC(Cc2cccc(Oc3ccccc3)c2)C(=O)NCC(=O)c2ccccc2)CC1 (stereo partly drawn) [Compound 15] | > 100 | > 200 | > 150 | > 100 | > 100 | > 100 | – |
| NC[C@H]1CC[C@H](C(=O)NC(Cc2cccc(Oc3ccccc3)c2)C(=O)Nc2ccncn2)CC1 (mixture of isomers) [Compound 12, N-(trans-4-aminomethylcyclohexylcarbonyl)-3-phenoxy-DL-phenylalanine 4-pyrimidylamide dihydrochloride] | > 1000 | 55 | > 150 | > 1000 | 1000 | 130 | – |
| N=C(N)c1ccc(NC(=O)C(Cc2cccc(Oc3ccccc3)c2)NC(=O)[C@H]2CC[C@H](CN)CC2)cc1 (mixture of isomers) [Compound 5, N-(trans-4-aminomethylcyclohexylcarbonyl)-3-phenoxy-DL-phenylalanine-4-amidinoanilide dihydrochloride] | 38 | 8.7 | 2.5 | > 100 | 22 | 12 | – |
| NC[C@H]1CC[C@H](C(=O)NC(Cc2cccc(Oc3ccccc3)c2)C(=O)Nc2nnn[nH]2)CC1 (stereo partly drawn) [Compound 13] | > 200 | > 200 | > 150 | > 100 | – | – | – |
| NC[C@H]1CC[C@H](C(=O)NC(Cc2cccc(Oc3ccccc3)c2)C(=O)Nc2ncccc2C(=O)O)CC1 (mixture of isomers) [Compound 10, N-(trans-4-aminomethylcyclohexylcarbonyl)-3-phenoxy-DL-phenylalanine 2-nicotinylamide dihydrobromide] | > 250 | > 250 | > 150 | > 125 | – | – | – |
| NC[C@H]1CC[C@H](C(=O)NC(Cc2cccc(Oc3ccccc3)c2)C(=O)Nc2cccnc2)CC1 (stereo partly drawn) [Compound 7] | – | 2 | 15 | > 1000 | – | – | – |
| NC[C@H]1CC[C@H](C(=O)NC(Cc2cccc(Oc3ccccc3)c2)C(=O)Nc2ncc[nH]2)CC1 (stereo partly drawn) [Compound 11] | > 400 | 190 | 68 | – | 610 | 220 | – |
| CCOC(=O)c1ccccc1NC(=O)C(Cc1cccc(Oc2ccccc2)c1)NC(=O)[C@H]1CC[C@H](CN)CC1 (mixture of isomers) [Compound 4, N-(trans-4-aminomethylcyclohexylcarbonyl)-3-phenoxy-DL-phenylalanine 2-ethoxycarbonylanilide hydrochloride] | > 200 | > 100 | > 150 | – | > 100 | – | > 50 |

Second part, the compound after the results:

| IC50 (human urokinase) [µM] | IC50 (human plasma kallikrein) [µM] | IC50 (bovine trypsin) [µM] | IC50 (bovine thrombin; [3]) [µM] | IC50 (human plasmin [1]) [µM] | IC50 (human plasmin [2]) [µM] | IC50 (bovine thrombin) [µM] | Compound |
| --- | --- | --- | --- | --- | --- | --- | --- |
| > 200 | 270 | > 150 | > 50 | – | – | – | CCOC(=O)C1CCN(C(=O)C(Cc2cccc(Oc3ccccc3)c2)NC(=O)c2ccc(NC(=N)N)cc2)CC1 (racemic) [Compound 34, N-(4-guanidinobenzoyl)-3-phenoxy-DL-phenylalanine 4-ethoxycarbonyl piperidinoamide methane sulfonate] |
| > 200 | 4.5 | 42 | – | > 100 | > 25 | > 25 | CCOC(=O)c1cccc(NC(=O)C(Cc2cccc(Oc3ccccc3)c2)NC(=O)c2ccc(NC(=N)N)cc2)c1 (stereo not drawn) [Compound 33] |
| – | > 500 | 240 | – | > 500 | > 200 | – | N=C(N)Nc1ccc(C(=O)NC(Cc2cccc(Oc3ccccc3)c2)C(=O)N2CCC(C(=O)O)CC2)cc1 (racemic) [Compound 35, N-(4-guanidinobenzoyl)-3-phenoxy-DL-phenylalanine 4-hydroxycarbonyl piperidinoamide methane sulfonate] |
| – | 1.9 | 17 | – | 25 | > 25 | – | N=C(N)Nc1ccc(C(=O)NC(Cc2cccc(Oc3ccccc3)c2)C(=O)Nc2ccc(CC(=O)O)cc2)cc1 (racemic) [Compound 36, N-(4-guanidinobenzoyl)-3-phenoxy-DL-phenylalanine 4-hydroxycarbonylmethylanilide hydrochloride] |
| > 500 | > 100 | > 150 | > 100 | 160 | > 100 | – | CCOC(=O)C1CCN(C(=O)C(Cc2cccc(Oc3ccccc3)c2)NC(=O)[C@H]2CC[C@H](CNC(=N)N)CC2)CC1 (stereo partly drawn) [Compound 31] |
| > 1000 | > 1000 | > 150 | > 1000 | > 1000 | 700 | – | NC[C@H]1CC[C@H](C(=O)NC(Cc2cccc(C(=O)c3ccccc3)c2)C(=O)N2CCOCC2)CC1 (stereo partly drawn) [Compound 24] |
| > 1000 | 500 | > 150 | > 1000 | 490 | 450 | – | COCCCNC(=O)C(Cc1cccc(Oc2ccc(Br)cn2)c1)NC(=O)[C@H]1CC[C@H](CN)CC1 (mixture of isomers) [Compound 25, N-(trans-4-aminomethylcyclohexylcarbonyl)-3-(5-bromo-2-pyridyloxy)-DL-phenylalanine 3-methoxypropylamide hydrochloride] |
| > 1000 | > 1000 | > 150 | > 1000 | > 1000 | 400 | – | CCOC(=O)C1CCCCN1C(=O)C(Cc1cccc(Oc2ccc(Br)cn2)c1)NC(=O)[C@H]1CC[C@H](CN)CC1 (stereo partly drawn) [Compound 26] |
| – | > 500 | > 150 | > 500 | > 1000 | > 500 | – | NC[C@H]1CC[C@H](C(=O)NC(Cc2cccc(OCc3ccccc3)c2)C(=O)Nc2cccnc2)CC1 (mixture of isomers) [Compound 22, N-(trans-4-aminomethylcyclohexylcarbonyl)-3-benzyloxy-DL-phenylalanine 3-pyridylamide dihydrochloride] |
| – | > 10 | > 150 | – | > 20 | > 50 | – | CC(=O)c1ccc(NC(=O)C(Cc2cccc(Oc3ccccc3)c2)NC(=O)[C@H]2CC[C@H](CNC(=N)N)CC2)cc1 (mixture of isomers) [Compound 30, N-(trans-4-guanidinomethylcyclohexylcarbonyl)-3-phenoxy-DL-phenylalanine 4-acetylanilide methane sulfonate] |
